Earlier results as cited in patent US20060286164A1 (priority 2004, published 2006).
“Also recorded” adds a separate entry of the source. Like-named read-outs stand apart in the source and are kept apart here.

Tests used:
[1] = not given; remark: listed apart in the source
[2] = set by WHO from metabolic and toxicological data
Guinea Pig = details: in vivo, po
mouse = details: in vivo, po

In the case of `CC(C)Cc1ccc(C(C)C(=O)O)cc1` (racemic) [Ibuprofen, 2-(4-Isobutylphenyl)Propionic acid], the solubility in water is given as “practically insoluble; also recorded: not soluble”.

For `CCOCCOCCO` [Transcutol, Diethylene glycol monoethyl ether], the solubility in water is given as “soluble”, the solubility ([1]; ethanol, hexylene glycol and propylene glycol) is given as “soluble” and the solubility ([1]; vegetable oil) is given as “partially soluble”. For the same compound, the LD50 (rat; in vivo, po) was 7.5 mg/kg.

In the case of `CC(C)Cc1ccc([C@H](C)C(=O)O)cc1` [(S)-(+)-Ibuprofen], the solubility in water is given as “not soluble”.

In the case of `CCCCCCCC/C=C\CCCCCCCC(=O)O` [Oleic acid, (Z)-9-Octadecenoic acid], the LD50 (rat; IV) is listed as 2.4 mg/kg.

For Vitamin E, the solubility in water is listed as “practically insoluble” and the solubility ([1]; acetone, ethanol, ether and vegetable oil) is listed as “freely soluble”.

In the case of `CC(O)CO` (stereo not shown) [propylene glycol, Propylene glycol], the acceptable daily intake [2] is listed as “up to 25 mg/kg body weight”.

For `CCO` [Ethanol, Ethyl alcohol], the miscibility ([1]; chloroform, ether, glycerin and water) is given as “miscible”, the LD50 (Guinea Pig) is given as 5560 mg/kg and the LD50 (mouse) is given as 7500 mg/kg.
